Experimental data from patent US4450269A, “Mono-5-substituted-3-chloro-4H-1,2,6-thiadiazin-4-one antifungal agents” (FMC Corporation, priority 1980, dated 1984).
Like-named read-outs stand apart in the source and are kept apart here.

How the values were obtained:
[1] = tested on: Pyricularia oryzae; test: microbe, parasite or virus in culture; format: cell-based; settings: Pyricularia oryzae, 72 h; for inhibition at 5 ppm: read-out: Percent Fungus Growth Inhibition, PO, 5 ppm, 72 hours; for inhibition at 10 ppm: read-out: Percent Fungus Growth Inhibition, PO, 10 ppm, 72 hours; for inhibition at 20 ppm: read-out: Percent Fungus Growth Inhibition, PO, 20 ppm, 72 hours; for inhibition at 40 ppm: read-out: Percent Fungus Growth Inhibition, PO, 40 ppm, 72 hours
[2] = tested on: Phytophthora infestans; format: cell-based; settings: PI, 48 hours

| SMILES | inhibition at 5 ppm [1] | inhibition at 10 ppm [1] | inhibition at 20 ppm [1] | inhibition at 40 ppm [1] | Spore Germination Rating ([2]; 1.0 ppm) | Spore Germination Rating ([2]; 2.5 ppm) | Spore Germination Rating ([2]; 10 ppm) | Spore Germination Rating ([2]; 40 ppm) |
| --- | --- | --- | --- | --- | --- | --- | --- | --- |
| O=C(O)c1ccc(Oc2nsnc(Cl)c2=O)cc1 [Compound 50, 3-(4-carboxyphenoxy)-5-chloro-4H--1,2,6-thiadiazin-4-one] | 11% | 0% | 11% | 100% | 4 (80-100) | 2 (40-60) | 0 (0-10) | 0 (0-10) |
| COc1ccc(Cl)c(Oc2nsnc(Cl)c2=O)c1 [Compound 51, 3-chloro-5-[(2-chloro-5-methoxy)phenoxy]-4H--1,2,6-thiadiazin-4-one] | 46% | 77% | 92% | 100% | 4 (80-100) | 3 (60-80) | 1 (10-40) | 0 (0-10) |
| COc1cc(Cl)cc(Oc2nsnc(Cl)c2=O)c1 [Compound 52, 3-chloro-5-[(3-chloro-5-methoxy)phenoxy]-4H--1,2,6-thiadiazin-4-one] | 58% | 77% | 100% | 100% | 4 (80-100) | 0 (0-10) | 0 (0-10) | 0 (0-10) |
| O=c1c(Cl)nsnc1Oc1ccc([N+](=O)[O-])cc1Cl [Compound 53, 3-chloro-5-(2-chloro-4-nitrophenoxy)-4H--1,2,6-thiadiazin-4-one] | 69% | 75% | 78% | 67% | 1 (10-40) | 0 (0-10) | 0 (0-10) | 0 (0-10) |
| Cc1cc(Oc2nsnc(Cl)c2=O)ccc1Cl [Compound 54, 3-chloro-5-(4-chloro-3-methylphenoxy)-4H--1,2,6-thiadiazin-4-one] | 50% | 53% | 56% | 65% | 1 (10-40) | 0 (0-10) | 0 (0-10) | 0 (0-10) |
| Cc1cc(Cl)ccc1Oc1nsnc(Cl)c1=O [Compound 55, 3-chloro-5-(4-chloro-2-methylphenoxy)-4H--1,2,6-thiadiazin-4-one] | 41% | 59% | 51% | 53% | 1 (10-40) | 0 (0-10) | 0 (0-10) | 0 (0-10) |
| Cc1ccc(Oc2nsnc(Cl)c2=O)c(Br)c1 [Compound 57, 3-[(2-bromo-4-methyl)-phenoxy]-5-chloro-4H--1,2,6-thiadiazin-4-one] | 46% | 61% | 71% | 61% | 4 (80-100) | 1 (10-40) | 0 (0-10) | 0 (0-10) |
| Cc1cc(Cl)c(Oc2nsnc(Cl)c2=O)cc1C [Compound 58, 3-chloro-5-[(2-chloro-4,5-dimethyl)phenoxy]-4H--1,2,6-thiadiazin-4-one] | 43% | 54% | 29% | 50% | 3 (60-80) | 2 (40-60) | 0 (0-10) | 0 (0-10) |
| Cc1cc(Oc2nsnc(Cl)c2=O)cc(C)c1Cl [Compound 59, 3-chloro-5-[(4-chloro-3,5-dimethyl)phenoxy]-4H--1,2,6-thiadiazin-4-one] | 50% | 61% | 50% | 50% | 4 (80-100) | 1 (10-40) | 1 (10-40) | 0 (0-10) |
| Cc1cc(Oc2nsnc(Cl)c2=O)cc(C)c1Br [Compound 60, 3-[(4-bromo-3,5-dimethyl)-phenoxy]-5-chloro-4H--1,2,6-thiadiazin-4-one] | 32% | 43% | 43% | 64% | 4 (80-100) | 2 (40-60) | 1 (10-40) | 0 (0-10) |
| COc1cc(Oc2nsnc(Cl)c2=O)cc(OC)c1C(C)=O [Compound 61, 3-[(4-acetyl-3,5-dimethoxy)-phenoxy]-5-chloro-4H--1,2,6-thiadiazin-4-one] | 28% | 42% | 50% | 44% | 4 (80-100) | 4 (80-100) | 3 (60-80) | 0 (0-10) |
